# From patent publication US12721881B2, “Endostatin peptides for the treatment of tumors, fibrosis and acute lung injury” (MUSC Foundation for Research Development, priority 2019, dated 2026)
# Where no end group is shown, it is not given here. The star is where a group is joined. Biotin = O=C1N[C@H]2[C@H](CS[C@H]2CCCCC(=O)*)N1
# Key:
# normal lung fibroblasts [1] = assay: Fibronectin in supernatants of TGFbeta-treated normal lung fibroblasts; type: cell-based, human; conditions: 10 μg/ml to 80 μg/ml, 72 hours
# Description: Normal lung fibroblasts were treated with TGFbeta without or with increasing concentrations for 96-87. Supernatants were assessed for fibronectin levels after 72 hours of treatment. 96-87 had no effect on TGFbeta-induced FN production, even with increasing concentration from 10 μg/ml to 80 μg/ml (FIG. 18).
# normal lung fibroblasts [2] = assay: Extracellular matrix proteins in TGFbeta-treated normal lung fibroblasts, immunoblotting; type: cell-based, human; conditions: 10 μg/ml peptide
# Description: Normal lung fibroblasts were treated with vehicle as control (VC) or TGFbeta (T) in the presence or absence of 10 μg/ml of various peptide fragments. The extracellular matrix proteins, Collagen 1A1 and fibronectin (FN) were assessed using immunoblotting.
# [3] = tested on: systemic sclerosis pulmonary fibrosis lung tissues; assay: MMP-1 induction in systemic sclerosis pulmonary fibrosis lung tissues in organ culture; type: cell-based, human; conditions: 10 μg/ml, TGFbeta, 120 hrs
# Description: Systemic sclerosis pulmonary fibrosis lung tissues were divided into equal size cores. Lung tissues in organ culture were treated with different peptide fragments derived from endostatin at a final concentration of 10 μg/ml in the presence of TGFbeta for 120 hrs. The induction of matrix metalloprotease (MMP)-1 (also known as collagenase) in media conditioned by the lung tissues was examined as a measure of the ability of the peptide to reduce fibrosis and promote extracellular matrix degradation.
# [4] = tested on: fibroblasts from lungs of patients with SSc; assay: Gene expression in fibroblasts from lungs of patients with systemic sclerosis (SSc); type: cell-based, human; conditions: SSc lung fibroblasts
# Description: […] RNA was extracted and levels of alpha smooth muscle actin (SMA) measured by qRT-PCR.
# SSc fibroblasts were treated with 10 μg/ml BioE4-03 for 72 hours. RNA was extracted and used to measure SMA and Collagen 1A2.
# [5] = tested on: fibroblasts from lung tissues of normal donors; assay: Alpha smooth muscle actin qRT-PCR in TGFbeta-treated fibroblasts from lung tissues of normal donors; type: cell-based, human; conditions: 48 hours
# Description: Fibroblasts were treated with TGFbeta with or without peptide Bio96-17 for 48 hours. RNA was extracted and levels of alpha smooth muscle actin (SMA) measured by qRT-PCR.
# [6] = tested on: lung tissues of normal donors; assay: Lung tissues of normal donors in organ culture after induction of fibrosis with TGFbeta; type: cell-based, human; conditions: normal donor lung tissue; for hydroxyproline levels: fibrosis induced with TGFbeta
# tumors = assay: Histologic analysis of tumors (H & E, Masson Trichrome); type: in vivo, mouse; conditions: for collagen bundles in the tumors (Masson Trichrome stain): compared to tumors from vehicle treated mice
# Description: Histological analysis of tumors treated with vehicle alone, or with BioE4-03 or Bio96 peptides was performed.
# [7] = tested on: mc-38 colon adenocarcinoma tumor cells; assay: mc-38 colon adenocarcinoma tumor growth in mice, oral gavage; type: in vivo; conditions: 100 μg/mouse oral gavage twice/week; for mean rate of increase in the tumor volume at day 21: PBS control 151.1 mm^3 per day; for mean tumor volume at day 21 (model-based estimate): PBS control 1492.1 mm^3
# Description: (§1) For each of the experiments, descriptive statistics (means and standard deviations) for tumor volumes were calculated over time for each experimental group (i.e. Experiment 1: Control vs. BioE4 (FIG. 1); Experiment 2: PBS, Bio96, and BioE4-03 (FIG. 5)). Since tumor growth tends to be curvilinear, general linear mixed models (GLMMs) were created to estimate treatment-specific growth curves over time and to make comparisons between the peptide treatments and control. Separate GLMMs were constructed for each experiment, and each GLMM included random effects for each mouse, to control for the fact that the repeated volume measurements within a given mouse were correlated with one another. Tumor volume served as the dependent variable in each model, while time (in days), […], treatment x time, and treatment x time^2 were included as independent variables. Using these models, the estimated mean tumor volumes at specific selected time points and the mean rate of change in the tumor volumes at specific selected time points were compared. If a mouse's tumor grew too large, it was sacrificed; however, all tumor volumes measured prior to sacrifice were included in the modeling process. SAS v9.4 (SAS Institute, Cary, NC) was used for all analyses. All hypothesis tests were 2-sided, and p-values <0.05 were considered statistically significant.
# sMIC tolerant transgenic (MB481 strain) mice (Liu et al, Perturbation of NK cell peripheral homeostasis accelerates prostate carcinoma metastasis. J. Clin. Invest. 123:4410, 2013) were injected with 1×10^5 mc-38 colon adenocarcinoma tumor cells via subcutaneous injection When tumor size reached approximately 75 mm^3, treatment was started. start treatment at four group. Bio96 100 μg/mouse, BioE4-03 100 μg/mouse, were given via oral gavage in a volume of 100 μl. PBS (100 μl) was given as a vehicle control. Peptides and vehicle were administered twice/week. Tumor volume was measured 3 times per week.
# Direct comparisons were made between the PBS control and Bio96 and between PBS and BioE4-03 with respect to the mean tumor volumes at Day 21 and the mean rate of change in the tumor volumes at Day 21 (FIG. 5 through FIG. 7).
# [8] = tested on: HCT116T cells (human colon carcinoma cells); assay: Gene expression in HCT116T cells by real-time PCR; type: cell-based; conditions: 10 μg/ml, 48 hours
# Description: (§2) The expression of several genes implicated in tumorigenesis, angiogenesis and cancer stem cell renewal was measured in a variety of tumor types and organs.
# Tumor cells were treated with 10 μg/ml BioE4-03 for 48 hours. RNA was extracted and analyzed by real-time PCR. N=3-4 independent experiments (except for uPAR where n=2).
# [9] = tested on: human lung adenocarcinoma cells (A549); assay: IL-6 mRNA by qPCR in A549 cells; type: cell-based; conditions: A549, 48 hours, relative to vehicle controls
# Description: (§3) IL-6 mRNA levels were measured via qPCR in human lung adenocarcinoma cells (A549) treated for 48 hours with BioE4-03 peptide. […] For comparison, a parallel experiment was done using non-biotinylated E4-03. […] Additionally, IL-6 protein levels in the supernatant of A549 cells were measured by ELISA after 72 hours of treatment with E4-03 peptide.
# [10] = tested on: fibroblasts from lungs of patients with IPF; assay: Gene expression in fibroblasts from lungs of patients with idiopathic pulmonary fibrosis (IPF); type: cell-based, human; conditions: IPF lung fibroblasts
# [11] = tested on: A549 cells (human lung adenocarcinoma cells); assay: Gene expression in A549 cells by real-time PCR; type: cell-based; conditions: A549, 10 μg/ml, 48 hours
# Description: as §2
# Tumor cells were treated with 10 μg/ml BioE4-03 for 48 hours. RNA was extracted and analyzed by real-time PCR. N=6-8 independent experiments. Statistical analysis was done using the paired t-test.
# [12] = tested on: lung tissues of patients with SSc; assay: Hydroxyproline in lung tissues of patients with SSc in organ culture; type: cell-based, human; conditions: SSc lung tissue, organ culture 72 hours
# [13] = tested on: lung tissues of patients with IPF; assay: Hydroxyproline in lung tissues of patients with IPF in organ culture; type: cell-based, human; conditions: IPF lung tissue, organ culture 72 hours
# skin tissues from donors = assay: Gene expression in donor skin tissues with TGFbeta-induced fibrosis; type: cell-based, human; conditions: skin tissue
# Source text: BioE4-03 further reduces Col1A1 and fibronectin (FN) gene expression in skin tissues from donors in which fibrosis was induced with TGFbeta (FIG. 25).
# [14] = tested on: TRAMP C-2 mouse prostate tumor cells; conditions: C57BL6 mice, 50 μg/dose oral gavage twice per week, day 15, vs water vehicle
# Description: as §1
# [15] = tested on: human lung adenocarcinoma cells (A549); assay: IL-6 protein by ELISA in supernatant of A549 cells; type: cell-based; conditions: A549, 72 hours, relative to vehicle controls
# Description: as §3
substance,measurement,setting,value
ATGQASSLLGGRLLGQ (C-terminal endostatin-derived peptide 96-87),TGFbeta-induced FN production (supernatants),normal lung fibroblasts [1],no effect
ATGQASSLLGGRLLGQSAASCHHA (C-terminal endostatin-derived peptide 96-17),Col1A1 levels induced by TGFbeta (immunoblotting),normal lung fibroblasts [2],effective at reducing
same,FN levels induced by TGFbeta (immunoblotting),normal lung fibroblasts [2],effective at reducing
same,MMP-1 production in media conditioned by the lung tissues,[3],induced MMP-1 production
Bio96-17: SEQ ID NO:4 being biotinylated at its N-terminus (Biotin-ATGQASSLLGGRLLGQSAASCHHA; not fully specified (C-terminus)),Coll1A2 levels,[4]; Bio96-17 experiment,significant reduction
same,SMA levels,[4]; Bio96-17 experiment,significant reduction
same,TGFbeta-induced SMA levels (qRT-PCR),[5],significant reduction
same,secreted Col1A1 protein levels,"[6]; TGFbeta, cultured 120 hours",significant reduction
same,hydroxyproline levels,[6],significant reductions
Biotin-NH2-ATGQASSLL-CONH2 (Biotin-ATGQASSLL-NH2; SMILES CC(C)C[C@H](NC(=O)[C@H](CC(C)C)NC(=O)[C@H](CO)NC(=O)[C@H](CO)NC(=O)[C@H](C)NC(=O)[C@H](CCC(N)=O)NC(=O)CNC(=O)[C@@H](NC(=O)[C@H](C)NC(=O)CCCC[C@@H]1SC[C@@H]2NC(=O)N[C@@H]21)[C@@H](C)O)C(N)=O) [Bio96],collagen bundles in the tumors (Masson Trichrome stain),tumors,thinner collagen bundles
same,tumor cell arrangement (H & E),tumors; tumors from treated mice,looser cell arrangement
same,mean rate of increase in the tumor volume at day 21,[7],90.6 mm^3 per day
same,mean tumor volume at day 21 (model-based estimate),[7],871.4 mm^3
Biotin-NH2-SYCETWRTEAPSATGQASSLLGGRLLGQSAASCHHA-CONH2 [BioE4-03],Expression of IL-6,[8],significantly reduced
same,Expression of PAI-I,[8],significantly reduced
same,Expression of PDGF-A,[8],significantly reduced
same,Expression of VEGF-A,[8],significantly reduced
same,Expression of uPA,[8],significantly reduced
same,Expression of uPAR,[8]; n=2,significantly reduced
same,expression of IL-6 mRNA,[9],significantly reduced
same,Coll1A2 levels,[10],trend towards decrease
same,SMA levels,[10],trend towards decrease
same,collagen bundles in the tumors (Masson Trichrome stain),tumors,thinner collagen bundles
same,tumor cell arrangement (H & E),tumors; tumors from treated mice,looser cell arrangement
same,tumor necrosis (H & E),tumors; tumors from treated mice,notable necrosis
same,mean rate of increase in the tumor volume at day 21,[7],76.0 mm^3 per day
same,mean tumor volume at day 21 (model-based estimate),[7],767.7 mm^3
same,Expression of IL-6,[11],significantly reduced
same,Expression of LOX,[11],significantly reduced
same,Expression of PAI-I,[11],significantly reduced
same,Expression of PDGF-A,[11],significantly reduced
same,Expression of VEGF-A,[11],significantly reduced
same,Expression of uPA,[11],significantly reduced
same,Expression of uPAR,[11],significantly reduced
same,Coll1A2 levels,"[4]; 10 μg/ml, 72 hours",significant reduction
same,SMA levels,"[4]; 10 μg/ml, 72 hours",significant reduction
same,hydroxyproline levels,[12],significant reduction
same,hydroxyproline levels,[6],significant reductions
same,hydroxyproline levels,[13],significant reduction
same,Col1A1 gene expression,skin tissues from donors,reduces
same,fibronectin (FN) gene expression,skin tissues from donors,reduces
Biotin-NH2-SYCETWRTEAPSATGQASSLLGGRLLGQSAASCHHAYIVLCIENSFMT-CONH2 [BioE4],"mean rate of increase in the tumor volume on day 15, Control vs. peptide group",[14],significantly (p=0.02) greater in the Control group
same,"mean tumor volume at day 15 (model-based estimate), Control vs. peptide group",[14],significantly (p=0.0001) greater in the Control group
SYCETWRTEAPSATGQASSLL (C-terminal endostatin-derived peptide 91-96),MMP-1 production in media conditioned by the lung tissues,[3],no effect
SYCETWRTEAPSATGQASSLLGGRLLGQ (C-terminal endostatin-derived peptide 91-97) [91-87],MMP-1 production in media conditioned by the lung tissues,[3],no effect
SYCETWRTEAPSATGQASSLLGGRLLGQSAASCHHA (C-terminal endostatin-derived peptide E4-03),expression of IL-6 mRNA,[9],reduced
same,IL-6 protein levels in the supernatant,[15],significantly reduced
same,Col1A1 levels induced by TGFbeta (immunoblotting),normal lung fibroblasts [2],effective at reducing
same,FN levels induced by TGFbeta (immunoblotting),normal lung fibroblasts [2],effective at reducing
same,MMP-1 production in media conditioned by the lung tissues,[3],induced MMP-1 production
